According to patent publication US12714718B2, “Treatment of 22Q11.2 deletion syndrome with cannabidiol” (priority 2018, dated 2026):

How the values were obtained:
[1] = cited from earlier work
[2] = tested on: children and adolescents with 22q11.2 Deletion Syndrome; assay: Pediatric Anxiety Rating Scale (PARS), open-label ZYN002 study; type: in vivo, human; details: Week 14
Protocol: (§1) Methodology: This was an open-label study to assess the safety, tolerability and efficacy of CBD administered as ZYN002, a transdermal gel, for the treatment of child and adolescent patients with 22q11.2 deletion syndrome. Male and female patients with 22q11.2 deletion syndrome were treated in Period 1 for 14 weeks with 250 mg and 500 mg of CBD (patients ≤35 kg received 250 mg CBD daily; patients >35 kg received 500 mg CBD daily). For patients with less than a 25% improvement from baseline in the ABC-C irritability subscale, the investigator could increase the total daily dose at Week 6 of treatment. Twenty male and female patients, ages 6 to <18 years, received ZYN002.
Pediatric Anxiety Rating Scale (PARS): The PARS is a clinician-rated caregiver interview that covers 61 behaviors related to anxiety (Riddle M A, et al, The Pediatric Anxiety Rating Scale (PARS) Development and Psychometric Properties, J. Am. Acad. Child Adolesc. Psychiatry, 2002, 4(9):1061-1069). The PARS provides broad coverage of separation anxiety, social phobia, and generalized anxiety. […] The interviewer assesses the severity by quantifying the frequency and degree of interference and avoidance in family, school and community settings. Each of seven severity items is scored on a scale of 1 to 5, with 5 being the most severe and frequent. […]

[3] = tested on: children and adolescents with 22q11.2 Deletion Syndrome; assay: Safety and tolerability monitoring, open-label ZYN002 study; type: in vivo, human; details: up to 14 weeks
Protocol: as §1
Safety Monitoring: Patient safety was monitored at each study visit using standard measures, including physical and neurological exams, examination of skin at application sites for irritation, vital signs, 12-lead ECGs, the C-SSRS, safety laboratory tests, and AE monitoring.
(§2) Each application consisted of one sachet of ZYN002 CBD 4.2% concentration, containing 2.98 g of gel. At Week 6, if the patient had less than a 25% improvement from baseline in the ABC-C irritability subscale, the investigator increased the dose as follows: • Patients who weigh ≤35 kg receiving a total daily dose of 250 mg CBD had their daily dose increased to 500 mg. […]

[4] = tested on: adults with social phobia; details: crossover trial; cited from earlier work
[5] = tested on: children and adolescents with 22q11.2 Deletion Syndrome; assay: Aberrant Behavior Checklist-Community (ABC-C), open-label ZYN002 study; type: in vivo, human; details: Week 6 and Week 14
Text: Aberrant Behavior Checklist-Community (ABC-C): The Aberrant Behavior Checklist-Community, 2nd Edition, was completed by the parent/caregiver, with support from the site staff. The ABC-C asks responders to rate behaviors from “0—not at all a problem” to “3—the problem is severe in degree” across 58 questions.
Each application consisted of one sachet of ZYN002 CBD 4.2% concentration, containing 2.98 g of gel. […]

children and adults = details: in vivo; cited from earlier work
[6] = tested on: children and adolescents with 22q11.2 Deletion Syndrome; assay: Anxiety, Depression, and Mood Scale (ADAMS), open-label ZYN002 study; type: in vivo, human; details: Week 6 and Week 14
Protocol: as §1
Anxiety, Depression, and Mood Scale (ADAMS): The Anxiety, Depression, and Mood Scale was completed by the parent/caregiver, with support from the site staff. The ADAMS was used as a comprehensive assessment of anxiety, depression, and mood among the patients. […]
(§3) Statistical Methods: Descriptive statistics (mean, median, standard deviation, minimum, and maximum) for continuous data and number (n) and percentage (%) for categorical data were determined for all efficacy and safety parameters.

[7] = tested on: children and adolescents with 22q11.2 Deletion Syndrome; assay: Clinical Global Impression-Improvement (CGI-I), open-label ZYN002 study; type: in vivo, human
Protocol: as §1
Clinical Global Impressions Scale-Improvement: The Clinical Global Impression Scale, Improvement (CGI-I), is commonly used in clinical trials as they allow the clinician to utilize the history from the caregiver and incorporate the score into a clinical rating for the severity of symptoms. CGI-I is a 7-point scale that is used to assess how much the patient's behavioral symptoms associated with 22q11.2 deletion syndrome have improved, or worsened, relative to a baseline assessment at the beginning of the treatment.
as §2, with “mg. Each application consisted of two sachets of ZYN002 CBD 4.2% concentration, containing 2.98 g of gel. • Patients >35 kg received 250 mg CBD applied Q12H (±2 hours); total daily dose of 500 mg CBD.” for “mg.”
as §3

## C=C(C)C1CCC(C)=CC1c1c(O)cc(CCCCC)cc1O (stereo not shown) [CBD, 2-[3-methyl-6-(1-methylethenyl)-2-cyclohexen-1-yl]-5-pentyl-1,3-benzenediol]
[1]
  solubility in water, in words: virtually insoluble in water
[2]
  PARS vs baseline, in words: statistically significant improvements
[3]
  tolerability of transdermal administration: well tolerated
[4]
  physiological and cognitive indicators of anxiety: significant and clinically meaningful reductions
[5]
  ABC-C all five subscales vs baseline, in words: statistically and clinically meaningful improvements
Children and adults
  tolerability in children and adults: generally well tolerated
[6]
  ADAMS total score and all five subscales vs baseline, in words: statistically significant improvements
[7]
  patients being much improved or very much improved (CGI-I): 62.5%
  patients rated by clinicians as improved, much-improved or very much improved (CGI-I): Seventy-five
[7]; Week 6 and Week 14
  CGI-I, majority of patients, in words: clinically meaningful improvements
